Reference: patent US9120744B2, “Plasminogen activator inhibitor-1 inhibitors and methods of use thereof to modulate lipid metabolism” (THE REGENTS OF THE UNIVERSITY OF MICHIGAN, priority 2007, dated 2015)
Structures can show the parent of a compound that is named as a salt. Where two headings read alike, the source gives them in different places.

Key:
[1] = biological target: T1, recombinant active human PAI-1 (Homo sapiens (Human), UniProt P05121); assay: pH dependence of PAI-1 inhibition, fluorogenic uPA (or tPA) assay; type: biochemical; settings: for effect of pH on PAI-1 inhibition (in words): pH 6.5 to 8.5; for PAI-1 inhibitory efficacy (in words): pH 7.5 (FIG. 8), additional experiments
T1 sequence (P05121 24-402): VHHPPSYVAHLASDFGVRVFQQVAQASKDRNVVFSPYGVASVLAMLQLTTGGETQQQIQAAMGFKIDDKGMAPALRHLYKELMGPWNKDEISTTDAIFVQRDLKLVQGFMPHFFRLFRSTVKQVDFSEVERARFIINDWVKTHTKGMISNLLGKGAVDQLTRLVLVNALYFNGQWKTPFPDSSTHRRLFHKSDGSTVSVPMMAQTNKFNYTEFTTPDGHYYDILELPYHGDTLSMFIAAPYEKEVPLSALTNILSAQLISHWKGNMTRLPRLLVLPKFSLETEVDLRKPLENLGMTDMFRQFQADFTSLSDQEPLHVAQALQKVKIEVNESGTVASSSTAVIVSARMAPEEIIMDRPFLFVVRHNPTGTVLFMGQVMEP

[2] = biological target: T1, recombinant active human PAI-1; assay: β-trypsin screening assay for PAI-1 inhibitors; type: biochemical;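 further: fluorogenic readout with PAI-1 and β-trypsin at 10:1 molar ratio, untreated PAI-1 wells set as 100% PAI-1 activity and β-trypsin alone as 0%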
[3] = 10 μM compound, hit = more than 3 standard deviations above control

| Structure (SMILES) | screening hit: restoration of β-trypsin activity [2, 3] | further results |
| --- | --- | --- |
| COc1ccc(S(=O)(=O)NCCNS(=O)(=O)c2ccc(OC)c(OC)c2)cc1OC [CDE-029] |  | effect of pH on PAI-1 inhibition (in words) [1]: increased with increasing pH; PAI-1 inhibitory efficacy (in words) [1]: effective inhibitors of PAI-1 |
| O=C(OC[C@H]1O[C@H](OC(=O)c2cc(OCc3ccccc3)c(OCc3ccccc3)c(OCc3ccccc3)c2)[C@H](OC(=O)c2cc(OCc3ccccc3)c(OCc3ccccc3)c(OCc3ccccc3)c2)[C@@H](OC(=O)c2cc(OCc3ccccc3)c(OCc3ccccc3)c(OCc3ccccc3)c2)[C@H]1OC(=O)c1cc(OCc2ccccc2)c(OCc2ccccc2)c(OCc2ccccc2)c1)c1cc(OCc2ccccc2)c(OCc2ccccc2)c(OCc2ccccc2)c1 [CDE-007] |  | PAI-1 inhibitory efficacy (in words) [1]: not inhibitory |
| CCN(CCN(CC)S(=O)(=O)c1ccc(OC)c(OC)c1)S(=O)(=O)c1ccc(OC)c(OC)c1 [CDE-030] |  | effect of pH on PAI-1 inhibition (in words) [1]: increased with increasing pH; PAI-1 inhibitory efficacy (in words) [1]: effective inhibitors of PAI-1 |
| O=C(OC[C@H]1O[C@@H](OC(=O)c2cc(O)c(O)c(O)c2)[C@@H](OC(=O)c2cc(O)c(O)c(O)c2)[C@@H](OC(=O)c2cc(O)c(O)c(O)c2)[C@@H]1OC(=O)c1cc(O)c(O)c(O)c1)c1cc(O)c(O)c(O)c1 [CDE-002] |  | PAI-1 inhibitory efficacy (in words) [1]: effective PAI-1 inhibitors |
| CN1[C@@H]2CC[C@H]1C[C@@H](OC(=O)c1c[nH]c3ccccc13)C2.Cl [TROPISETRON HCl] |  | screening hit: restoration of β-trypsin activity [2]: demonstrate PAI-1 inhibitor activity |
| NCCc1cc(O)c(O)cc1O [OXIDOPAMINE HYDROCHLORIDE] | demonstrate PAI-1 inhibitor activity |  |
| CC12CC3CC(C)(C1)CC(N)(C3)C2 [MEMANTINE HYDROCHLORIDE] | demonstrate PAI-1 inhibitor activity |  |
| O=C(OC[C@H]1O[C@@H](OC(=O)c2cc(O)c(O)c(O)c2)[C@H](OC(=O)c2cc(O)c(O)c(O)c2)[C@@H](OC(=O)c2cc(O)c(O)c(O)c2)[C@H]1OC(=O)c1cc(O)c(O)c(O)c1)c1cc(O)c(O)c(O)c1 [CDE-004] |  | PAI-1 inhibitory efficacy (in words) [1]: effective PAI-1 inhibitors |
| CC[C@@]1(O)C[C@H](O[C@H]2C[C@H](N(C)C)[C@H](O)[C@H](C)O2)c2c(cc3c(c2O)C(=O)c2c(O)cccc2C3=O)[C@H]1C(=O)OC [AKLAVINE HYDROCHLORIDE] | demonstrate PAI-1 inhibitor activity |  |
| CCOc1nc2cccc(C(=O)OC(C)OC(=O)OC3CCCCC3)c2n1Cc1ccc(-c2ccccc2-c2nn[nH]n2)cc1 (stereo not shown) [CANDESARTAN CILEXTIL] | demonstrate PAI-1 inhibitor activity |  |
| CC(C(=O)[O-])c1ccc(CC2CCCC2=O)cc1.[Na+] (stereo not shown) [LOXOPROFEN SODIUM] | demonstrate PAI-1 inhibitor activity |  |
| Cl.N[C@H]1C(O)O[C@H](CO)[C@@H](O)[C@@H]1O (stereo partly shown) [GLUCOSAMINE HYDROCHLORIDE] | demonstrate PAI-1 inhibitor activity |  |
| O=C(O)C1CC([C@@H]2CCCCN2)CN2CCCCC12 (stereo partly shown) [APHYLLIC ACID] | demonstrate PAI-1 inhibitor activity |  |
| CCOc1ccc(C(=O)c2ccc(O)c(O)c2O)cc1 [2,3,4-TRIHYDROXY-4′-ETHOXYBENZOPHENONE] | demonstrate PAI-1 inhibitor activity |  |
| C=C[C@H]1CN2CC[C@H]1C[C@H]2[C@H](OC(=O)OCC)c1ccnc2ccc(OC)cc12 [QUININE ETHYL CARBONATE] | demonstrate PAI-1 inhibitor activity |  |
| O=C(OC[C@H]1OC(OC(=O)c2cc(O)c(O)c(O)c2)[C@H](OC(=O)c2cc(O)c(O)c(O)c2)[C@@H](OC(=O)c2cc(O)c(O)c(O)c2)[C@@H]1OC(=O)c1cc(O)c(O)c(O)c1)c1cc(O)c(O)c(O)c1 (stereo partly shown) [CDE-001] |  | PAI-1 inhibitory efficacy (in words) [1]: effective PAI-1 inhibitors |
| NC(CO)C(=O)NNCc1ccc(O)c(O)c1O (stereo not shown) [BENSERAZIDE HYDROCHLORIDE] | demonstrate PAI-1 inhibitor activity |  |
| CN1CCN(CC(=O)N2c3ccccc3C(=O)Nc3cccnc32)CC1 [PIRENZEPINE HYDROCHLORIDE] | demonstrate PAI-1 inhibitor activity |  |
| CC(C)c1ccc2c(c1)c(SC(C)(C)C)c(CC(C)(C)C(=O)O)n2Cc1ccc(Cl)cc1 [1H-Indole-2-propanoic acid, 1-[(4-chlorophenyl)methyl]-3-[(1,1-dimethylethyl)thio]-Alpha,Alpha-dimethyl-5-(1-methylethyl)-] | demonstrate PAI-1 inhibitor activity |  |
| COc1ccc(-c2coc3cc(O)ccc3c2=O)c(O)c1O [KOPARIN] | demonstrate PAI-1 inhibitor activity |  |
| O=c1cc(-c2cc(O)c(O)c(O)c2)oc2cc(O)cc(O)c12 [HIERACIN] | demonstrate PAI-1 inhibitor activity |  |
| O=C(OC1Cc2c(O)cc(O)cc2O[C@@H]1c1cc(O)c(O)c(O)c1-c1c([C@@H]2Oc3cc(O)cc(O)c3C[C@@H]2OC(=O)c2cc(O)c(O)c(O)c2)cc(O)c(O)c1O)c1cc(O)c(O)c(O)c1 (stereo partly shown) [2′,2′-BISEPIGAL[…]] | demonstrate PAI-1 inhibitor activity |  |
| NCC1CCC(C(=O)Oc2ccc(CCC(=O)O)cc2)CC1 (stereo not shown) [CETRAXATE HCl] | demonstrate PAI-1 inhibitor activity |  |
| CCN(CC)CCOC(=O)C(c1ccccc1)C1CCCCC1 (stereo not shown) [DROFENINE HYDROCHLORIDE] | demonstrate PAI-1 inhibitor activity |  |
| O=C(OC[C@H]1O[C@@H](OC(=O)c2cc(OCc3ccccc3)c(OCc3ccccc3)c(OCc3ccccc3)c2)[C@H](OC(=O)c2cc(OCc3ccccc3)c(OCc3ccccc3)c(OCc3ccccc3)c2)[C@@H](OC(=O)c2cc(OCc3ccccc3)c(OCc3ccccc3)c(OCc3ccccc3)c2)[C@H]1OC(=O)c1cc(OCc2ccccc2)c(OCc2ccccc2)c(OCc2ccccc2)c1)c1cc(OCc2ccccc2)c(OCc2ccccc2)c(OCc2ccccc2)c1 [CDE-006] |  | PAI-1 inhibitory efficacy (in words) [1]: not inhibitory |

| Structure (SMILES) | screening hit: restoration of β-trypsin activity [2, 3] | further results |
| --- | --- | --- |
| COc1cc(-c2coc3cc(OCc4ccccc4)c(OC)c(O)c3c2=O)cc(OCc2ccccc2)c1OC [IRIGENIN, DIBENZYL ETHER] | demonstrate PAI-1 inhibitor activity |  |
| CCOC(=O)N1CCC(=C2c3ccc(Cl)cc3CCc3cccnc32)CC1 [LORATADINE] | demonstrate PAI-1 inhibitor activity |  |
| CN1[C@H]2CCC[C@H]1CC(NC(=O)c1nn(C)c3ccccc13)C2.Cl (stereo partly shown) [GRANISETRON HCl] | demonstrate PAI-1 inhibitor activity |  |
| C[C@]12CCC(=O)C=C1C=C[C@@H]1[C@@H]2CC[C@@]2(C)[C@H]1CC[C@@]21CCC(=O)O1 [CANRENONE] | demonstrate PAI-1 inhibitor activity |  |
| CN1CCCC(n2nc(Cc3ccc(Cl)cc3)c3ccccc3c2=O)CC1 (stereo not shown) [AZELASTINE HYDROCHLORIDE] | demonstrate PAI-1 inhibitor activity |  |
| O=c1c(O)cccc2c([C@H]3Oc4cc(O)cc(O)c4C[C@H]3O)cc(O)c(O)c12 [THEAFLAVANIN] | demonstrate PAI-1 inhibitor activity |  |
| CCCCCCCCCOc1ccc2[nH]cc(CCN)c2c1 [5-Nonyloxytryptamine] | demonstrate PAI-1 inhibitor activity |  |
| O=C1C=C2CC3(O)COc4c(ccc(O)c4O)C3=C2C=C1O (stereo not shown) [HEMATEIN] | demonstrate PAI-1 inhibitor activity |  |
| CS(=O)(=O)O.Oc1ccc(C2CNCCc3c2cc(O)c(O)c3Cl)cc1 (stereo not shown) [FENOLDOPAM MESYLATE] | demonstrate PAI-1 inhibitor activity |  |
| COc1ccc2c(=O)c(-c3cc4c(cc3OC)OCO4)coc2c1 [CUNEATIN METHYL ETHER] | demonstrate PAI-1 inhibitor activity |  |
| O=C1Nc2ccc(Cl)cc2[C@@](C#CC2CC2)(C(F)(F)F)O1 [EFAVIRENZ] | demonstrate PAI-1 inhibitor activity |  |
| Oc1cc2c(cc1O)C1c3ccc(O)c(O)c3OCC1(O)C2 (stereo not shown) [HAEMATOXYLIN] | demonstrate PAI-1 inhibitor activity |  |
| O=C1c2ccc(O)c(O)c2C(=O)c2c(O)ccc(O)c21 [QUINALIZARIN, quinalizarin] | demonstrate PAI-1 inhibitor activity |  |
| O=C(O)c1cc(O)c(=O)c2c(O)c(O)ccc2c1 [7-DESHYDROXYPYROGALLIN-4-CARBOXYLIC ACID] | demonstrate PAI-1 inhibitor activity |  |
| Cc1cc(O)c(C=O)c2c1C(=O)Oc1c(C)c(O)c3c(c1O2)C(O)OC3=O (stereo not shown) [NORSTICTIC ACID] | demonstrate PAI-1 inhibitor activity |  |
| C=CC1=C(C(=O)O)N2C(=O)[C@@H](NC(=O)C(NOCC(=O)O)c3csc(N)n3)[C@H]2SC1 (stereo partly shown) [CEFIXIME TRIHYDRATE] | demonstrate PAI-1 inhibitor activity |  |
| NC(=O)OCC(COC(N)=O)c1ccccc1 [Felbamate] | demonstrate PAI-1 inhibitor activity |  |
| Cc1nc(C)c(Cl)c(O)c1Cl [CLOPIDOL] | demonstrate PAI-1 inhibitor activity |  |
| CNCC[C@H](Oc1cccc2ccccc12)c1cccs1 [DULOXETINE HCl] |  | screening hit: restoration of β-trypsin activity [2]: demonstrate PAI-1 inhibitor activity |
| O=C1[C@H](CC[C@H](O)c2ccc(F)cc2)[C@@H](c2ccc(O)cc2)N1c1ccc(F)cc1 [EZETIMIBE] | demonstrate PAI-1 inhibitor activity |  |
| Oc1c(Cl)cc(Cl)cc1Sc1cc(Cl)cc(Cl)c1O [BITHIONOL] | demonstrate PAI-1 inhibitor activity |  |
| O=c1c(O)c(-c2ccc(O)c(O)c2)oc2cc(O)ccc12 [NSC 407010] | demonstrate PAI-1 inhibitor activity |  |
| Cl.NCCc1ccc(O)c(O)c1 [DOPAMINE HYDROCHLORIDE] |  | screening hit: restoration of β-trypsin activity [2]: demonstrate PAI-1 inhibitor activity |
| CN(C)C(=S)SSC(=S)N(C)C [NSC 1771] | demonstrate PAI-1 inhibitor activity |  |
| Oc1ccc2c(c1)OC[C@]1(O)Cc3cc(O)c(O)cc3[C@H]21 [BRAZILIN] | demonstrate PAI-1 inhibitor activity |  |
